Patent US6610692B1, “Thrombin inhibitors” (Merck & Co., Inc., priority 1998, dated 2003)

target: human α-thrombin (Homo sapiens, UniProt P00734); assay: In vitro assay for determining proteinase inhibition: thrombin (sar-PR-pna or Z-GPR-afc substrate); format: biochemical; conditions: not given
Protocol: In vitro Assay for Determining Proteinase Inhibition
The assays were carried out at 25° C. in 0.05 M TRIS buffer pH 7.4, 0.15 M NaCl, 0.1% PEG. Trypsin assays also contained 1 mM CaCl2.
Concentrations of stock solutions of Z-GPR-afc were determined from measurements of absorbance at 380 nm of the 7-amino-4-trifluoromethyl coumarin produced upon complete hydrolysis of an aliquot of the stock solution by thrombin.
Times required to achieve equilibration between enzyme and inhibitor were determined in control experiments. Initial velocities of product formation in the absence (Vo) or presence of inhibitor (Vi) were measured. Assuming competitive inhibition, and that unity is negligible compared Km/[S], [I]/e, and [I]/e (where [S], [I], and e respectively represent the total concentrations, of substrate, inhibitor and enzyme), the equilibrium constant (Ki) for dissociation of the inhibitor from the enzyme can be obtained from the dependence of Vo, Vi on [I] shown in equation 1: […]

| Ki | SMILES |
| --- | --- |
| < 20 nM | Cc1cnc(NCCc2ccccn2)c(=O)n1CC(=O)NCc1cnc2[nH]ccc2c1 |

same assay, conditions: Table 1; 25° C., 0.05 M TRIS buffer pH 7.4, 0.15 M NaCl, 0.1% PEG; read-out: Inhibitory activity (Ki)

| Ki | SMILES |
| --- | --- |
| > 20 nM | Cc1nc2[nH]nnc2cc1CNC(=O)Cn1c(C)cnc(NCCc2ccccc2)c1=O |
| < 20 nM | CCC[C@@H]1Cc2cc(C)n(CC(=O)NCc3ccc4[nH]ccc4c3)c(=O)c2NC1=O |
| > 20 nM | Cc1cnc(NCCc2ccccc2)c(=O)n1CC(=O)NCc1cnc2[nH]nc(N)c2c1 |
| > 20 nM | Cc1cnc(NCCc2ccccc2)c(=O)n1CC(=O)NCc1ccc2[nH]nnc2c1 |
| < 20 nM | Cc1cc2c(c(=O)n1CC(=O)NCc1ccc3[nH]ccc3c1)NC(=O)[C@H](CC1CCC1)C2 |
| < 20 nM | Cc1cnc(NCCc2ccc3c(c2)OCO3)c(=O)n1CC(=O)NCc1ccc2[nH]ccc2c1 |
| < 20 nM | Cc1cnc(NCCc2cccnc2)c(=O)n1CC(=O)NCc1ccc2[nH]ccc2c1 |
| > 20 nM | Cc1cnc(NCCc2ccccn2)c(=O)n1CC(=O)NCc1ccc2c(cnn2C)c1 |
| > 20 nM | Cc1cnc(NCCc2ccccc2)c(=O)n1CC(=O)NCc1ccc2c(cnn2C)c1 |
| < 20 nM | Cc1cnc(NCC(F)(F)c2ccccn2)c(=O)n1CC(=O)NCc1ccc2[nH]ccc2c1 |
| > 20 nM | Cc1cnc(NCCc2ccccc2)c(=O)n1CC(=O)NCc1ccc2[nH]nc(N)c2c1 |
| < 20 nM | Cc1cnc(NCCc2ccccn2)c(=O)n1CC(=O)NCc1ccc2[nH]ncc2c1 |
| < 20 nM | Cc1cnc(NCCc2ccc3c(c2)OCO3)c(=O)n1CC(=O)NCc1ccc2[nH]ncc2c1 |
| < 20 nM | Cc1cnc(NCCc2ccccc2)c(=O)n1CC(=O)NCc1ccc2[nH]ncc2c1 |
| > 20 nM | Cc1cnc(NCCc2ccccc2)c(=O)n1CC(=O)NCc1cc2nc[nH]c2cn1 |
| < 20 nM | Cc1cc2c(c(=O)n1CC(=O)NCc1ccc3[nH]ccc3n1)NC(=O)[C@H](CC1CCC1)C2 |
| < 20 nM | Cc1cc2c(c(=O)n1CC(=O)NCc1ccc3[nH]ncc3c1)NC(=O)[C@H](CC1CCC1)C2 |
| < 20 nM | Cc1cc2c(c(=O)n1CC(=O)NCc1cnc3[nH]ccc3c1)NC(=O)[C@H](CC1CCC1)C2 |
| < 20 nM | Cc1cnc(NCC(F)(F)CC2CC2)c(=O)n1CC(=O)NCc1ccc2[nH]ccc2n1 |
| < 20 nM | Cc1cnc(NCC(F)(F)c2ccccc2)c(=O)n1CC(=O)NCc1ccc2[nH]ncc2c1 |
| > 20 nM | Cc1noc2ccc(CNC(=O)Cn3c(C)cnc(NCCc4ccccn4)c3=O)cc12 |
| > 20 nM | Cc1cc(SCC2CCC2)c(N)c(=O)n1CC(=O)NCc1ccc2[nH]nc(N)c2c1 |
| < 20 nM | Cc1cnc(NCC(F)(F)c2ccccc2)c(=O)n1CC(=O)NCc1ccc2[nH]nc(N)c2c1 |
| > 20 nM | Cc1c(CNC(=O)Cn2c(C)cnc(NCCc3ccccc3)c2=O)cnc2[nH]ccc12 |
| < 20 nM | Cc1cnc(NCC(F)(F)c2ccccn2)c(=O)n1CC(=O)NCc1ccc2[nH]cnc2c1 |

| Ki | SMILES |
| --- | --- |
| < 20 nM | Cc1cnc(NCC(F)(F)c2ccccc2)c(=O)n1CC(=O)NCc1ccc2[nH]cnc2c1 |
| > 20 nM | Cc1cnc(NCCc2ccccc2)c(=O)n1CC(=O)NCc1cnc2[nH]cnc2c1 |
| < 20 nM | Cc1cnc(NCC(F)(F)c2ccccc2)c(=O)n1CC(=O)NCc1cnc2[nH]cnc2c1 |
| < 20 nM | Cc1cnc(NCC(F)(F)c2ccccn2)c(=O)n1CC(=O)NCc1cnc2[nH]cnc2c1 |
| > 20 nM | Cc1cc(SCC2CCC2)c(N)c(=O)n1CC(=O)NCc1cnc2[nH]cnc2c1 |
| > 20 nM | Cc1cc(SCC2CC2)c(N)c(=O)n1CC(=O)NCc1cnc2[nH]cnc2c1 |
| < 20 nM | Cc1cc2c(c(=O)n1CC(=O)NCc1ccc3[nH]ccc3n1)NC(=O)[C@H](CC1CC1)C2 |
| < 20 nM | Cc1cc2c(c(=O)n1CC(=O)NCc1ccc3[nH]ccc3n1)NC(=O)[C@H](CC(C)C)C2 |
| < 20 nM | Cc1cc2c(c(=O)n1CC(=O)NCc1cc3cc[nH]c3cn1)NC(=O)[C@H](CC1CCC1)C2 |
| < 20 nM | Cc1cnc(NCC(F)(F)c2ccccn2)c(=O)n1CC(=O)NCc1ccc2[nH]ccc2n1 |
| < 20 nM | Cc1cnc(NCC(F)(F)c2ccccc2)c(=O)n1CC(=O)NCc1cc2cc[nH]c2cn1 |
| > 20 nM | Cc1nc2cc(CNC(=O)Cn3c(C)cnc(NCC(F)(F)c4ccccc4)c3=O)ccc2[nH]1 |
| < 20 nM | Cc1cc(SCC2CCC2)c(N)c(=O)n1CC(=O)NCc1ccc2[nH]cnc2c1 |
| < 20 nM | Cc1cnc(NCCc2ccccc2)c(=O)n1CC(=O)NCc1cc2c(Cl)c[nH]c2cn1 |
| > 20 nM | Cc1cc(SCC2CC2)c(N)c(=O)n1CC(=O)NCc1ccc2[nH]cnc2c1 |
| < 20 nM | Cc1cnc(NCCCCC2CC2)c(=O)n1CC(=O)NCc1cc2cc[nH]c2cn1 |
| < 20 nM | Cc1cnc(NCC(F)(F)c2ccccn2)c(=O)n1CC(=O)NCc1cc2cc[nH]c2cn1 |
| < 20 nM | Cc1cnc(NCCc2ccccn2)c(=O)n1CC(=O)NCc1cc2c(Cl)c[nH]c2cn1 |
| < 20 nM | Cc1cnc(NCC2(c3ccccn3)CC2)c(=O)n1CC(=O)NCc1ccc2[nH]ccc2c1 [drawing 16] |
| < 20 nM | Cc1cnc(NCC2(c3ccccn3)CC2)c(=O)n1CC(=O)NCc1ccc2[nH]cnc2c1 [drawing 18] |
| > 20 nM | Cc1cc2[nH]cnc2cc1CNC(=O)Cn1c(C)cnc(NCCc2ccccn2)c1=O [drawing 19] |
| < 20 nM | Cc1cc2[nH]cnc2cc1CNC(=O)Cn1c(C)cnc(NCC2(c3ccccn3)CC2)c1=O [drawing 20] |
| < 20 nM | Cc1cnc(NCCc2ccccn2)c(=O)n1CC(=O)NCc1ccc2[nH]cc(Cl)c2c1 [drawing 38] |
| < 20 nM | Cc1cnc(NCCc2ccccc2)c(=O)n1CC(=O)NCc1ccc2[nH]cc(Cl)c2c1 [drawing 39] |

test system: not given; assay: not given; conditions: not given

| melting point | SMILES |
| --- | --- |
| 175 to 184 °C | Cc1cc2[nH]cnc2cc1CNC(=O)Cn1c(C)cnc(NCCc2ccccn2)c1=O [Example 33, 3-[2-(2-Pyridyl)ethylamino]-6-methyl-1-(5-methylenecarboxamidomethyl-6-methylbenzimidazolyl)-pyrazinone] |
| 146 to 154 °C | Cc1cc2[nH]cnc2cc1CNC(=O)Cn1c(C)cnc(NCC2(c3ccccn3)CC2)c1=O [Example 34, 3-[1-(2-Pyridyl)-cyclopropylmethylamino]-6-methyl-1-(5-methylenecarboxamidomethyl-6-methylbenzimidazolyl)-pyrazinone] |
| 224 to 226 °C | Cc1cnc(NCCc2ccccn2)c(=O)n1CC(=O)NCc1ccc2[nH]cc(Cl)c2c1 [Example 35, 3-[2-(2-Pyridyl)ethylamino]-6-methyl-1-(3-chloro-5-methylene-carboxamidomethylindolyl)-pyrazinone] |
| 223 to 226 °C | Cc1cnc(NCCc2ccccc2)c(=O)n1CC(=O)NCc1ccc2[nH]cc(Cl)c2c1 [Example 36, 3-(2-Phenethylamino)-6-methyl-1-(3-chloro-5-methylenecarboxamidomethylindolyl)-pyrazinone] |
| 212 to 215 °C | Cc1cnc(NCC2(c3ccccn3)CC2)c(=O)n1CC(=O)NCc1ccc2[nH]ccc2c1 [Example 39, 3-[1-(2-Pyridyl)cyclopropylmethylamino]-6-methyl-1-(5-methylenecarboxamidomethylindolyl)-pyrazinone] |
| 134 to 139 °C | Cc1cnc(NCC2(c3ccccn3)CC2)c(=O)n1CC(=O)NCc1ccc2[nH]cnc2c1 [Example 41, 3-[1-(2-Pyridyl)cyclopropylmethylamino]-6-methyl-1-(5-methylenecarboxamidomethyl-benzimidazolyl)-pyrazinone] |
